Entries after “also recorded” stand apart in the source; their conditions may differ. Where two headings read alike, the source gives them in different places. Values belong to the compound of their own block, whether it stands above or below them.
How the values were obtained:
[1] = target: T1, CYP2C9 (Homo sapiens, UniProt P11712); assay: Enzyme inhibition assay, tolbutamide hydroxylation (HLM, 8HUM microsomes); details: tolbutamide 2 μM in cocktail, furafylline 3, enoxacin 200, fluconazole 300, sulfaphenazole 3, quinidine 3, paroxetine 10, ketoconazole 1 μM
T1 sequence (P11712 whole entry): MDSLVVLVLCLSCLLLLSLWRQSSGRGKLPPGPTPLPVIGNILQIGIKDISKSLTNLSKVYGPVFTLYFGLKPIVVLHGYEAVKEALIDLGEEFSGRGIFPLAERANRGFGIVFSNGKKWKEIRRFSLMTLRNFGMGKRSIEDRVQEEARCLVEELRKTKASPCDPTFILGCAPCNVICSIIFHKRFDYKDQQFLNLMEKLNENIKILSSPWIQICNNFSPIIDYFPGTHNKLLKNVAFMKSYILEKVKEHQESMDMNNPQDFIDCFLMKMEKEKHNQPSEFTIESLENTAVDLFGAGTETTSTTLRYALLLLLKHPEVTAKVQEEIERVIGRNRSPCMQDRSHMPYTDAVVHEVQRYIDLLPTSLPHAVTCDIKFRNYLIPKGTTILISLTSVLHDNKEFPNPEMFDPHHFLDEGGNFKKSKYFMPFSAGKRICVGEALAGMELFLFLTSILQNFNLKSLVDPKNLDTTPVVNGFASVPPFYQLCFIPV
Experimental: (§1) After a 5-minute preincubation at 37°C, reactions were initiated by addition of NADPH (1.3 mM). […] The samples were then centrifuged at 3000g for 55 minutes at 4°C, and an aliquot of the supernatant fraction was analyzed by LC-MS/MS. All experiments were performed at least in triplicate.

[2] = Dabrafenib pharmacokinetics in 8HUM mice: effect of rifampicin and ketoconazole; type: in vivo, mouse; details: for Cmax / half-life / AUC: female, 8HUM, mouse, whole blood, po, 10 mg/kg, female 8HUM mice, dabrafenib 10 mg/kg PO; for AUC: read-out: AUC0 t
Experimental: Pharmacokinetic parameters were calculated by Phoenix WinNonlin version 8.0.0.3176 (Certara, Princeton, NJ).
Fig. 3.

[3] = target: T2, CYP1A2 (Homo sapiens, UniProt P05177); assay: Enzyme inhibition assay, caffeine to paraxanthine (HLM, 8HUM microsomes); details: caffeine 220 μM in cocktail, furafylline 3, enoxacin 200, fluconazole 300, sulfaphenazole 3, quinidine 3, paroxetine 10, ketoconazole 1 μM
T2 sequence (P05177 1-516): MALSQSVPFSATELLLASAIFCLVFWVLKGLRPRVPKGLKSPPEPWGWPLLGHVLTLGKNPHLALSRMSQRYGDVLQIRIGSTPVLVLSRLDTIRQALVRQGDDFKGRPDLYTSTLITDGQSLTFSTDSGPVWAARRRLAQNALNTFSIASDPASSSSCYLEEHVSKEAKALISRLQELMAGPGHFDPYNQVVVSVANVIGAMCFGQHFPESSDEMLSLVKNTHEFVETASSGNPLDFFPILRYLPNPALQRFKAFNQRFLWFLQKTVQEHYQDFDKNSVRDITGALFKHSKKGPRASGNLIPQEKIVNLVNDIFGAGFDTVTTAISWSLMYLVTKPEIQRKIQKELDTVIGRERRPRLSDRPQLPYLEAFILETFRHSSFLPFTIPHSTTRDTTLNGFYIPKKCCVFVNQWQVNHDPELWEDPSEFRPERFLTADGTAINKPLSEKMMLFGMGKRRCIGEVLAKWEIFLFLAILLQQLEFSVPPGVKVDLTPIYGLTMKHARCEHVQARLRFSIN
Experimental: as §1

[4] = healthy volunteers; single dose of 200 mg ketoconazole 2 hours prior to midazolam; ref McCrea et al., 1999; cited from earlier work
[5] = female, 8HUM, mouse, in vivo
Experimental: Blood sampling and analysis was carried out as described above and in Supplemental Data.

[6] = test system: CYP2D6; assay: Kinetic parameters of 4-hydroxyl debrisoquine formation in liver microsomes (HLM, 8HUM); type: in vitro ADME; details: pooled human liver microsomes (HLM)
Experimental: All samples were handled in amber tubes under conditions of subdued light for the duration of the procedure. […] The samples were then centrifuged at 3000g for 55 minutes at 4°C and an aliquot of the supernatant fraction was analyzed by LC-MS/MS.
Calibration curves were constructed with authentic metabolite standards and linear regression analysis used to calculate the amount of metabolite formed in each test sample. […] The 7-ethoxyresorufin O-deethylation assay was carried out as detailed below.

[7] = test system: CYP2D6; parameters: method as in VandenBrink et al., 2012; details: man; ref VandenBrink et al., 2012; cited from earlier work
[8] = parameters: method as in Suttle et al., 2015; details: patients, 150 mg twice per day, ref Suttle et al., 2015, cited from earlier work
[9] = test system: 8HUM liver microsomes; assay: Dibenzylfluorescein O-debenzylation in liver microsomes of dabrafenib-treated 8HUM mice; type: in vitro ADME, mouse; details: for Dibenzylfluorescein O-debenzylation: 8HUM liver microsomes, dabrafenib-treated
Experimental: The O-debenzylation of dibenzylfluorescein (DBF) was measured as described above for the 7-methoxyresorufin O-demethylation assay, with the following modifications: the DBF concentration was 2 μM; the excitation filter was 485 nm; the emission filter was 530 nm; 20 pmol of the fluorescein was added to the control wells.
(§2) Fig. 8. Effect of dabrafenib on midazolam pharmacokinetics in 8HUM mice. […] Dab, Dabrafenib; MDZ, midazolam; Unt, untreated; Veh, vehicle.

[10] = test system: Cyp2b10; assay: Murine Cyp2b10 expression in humanized mice after treatment (immunoblot); type: in vivo, mouse; details: 8HUM mice, dabrafenib 10 mg/kg
Experimental: We therefore sought to identify a specific, clinically relevant PXR agonist that was nontoxic. […] Subsequent studies were therefore undertaken using SJW to induce CYP3A4 expression in 8HUM mice.
(§3) Fig. 7. […] Arrow indicates position of Cyp2b10 band. GRP78 was used as a loading control.
Fig. 8. Effect of dabrafenib on midazolam pharmacokinetics in 8HUM mice. Adult female 8HUM mice (n = 3) were treated with vehicle or dabrafenib (10 mg/kg) PO daily for 2 days, and on day 3 were administered midazolam (3 mg/kg) PO and PK profiling carried out as described in Materials and Methods. (A) Pharmacokinetic profiling for midazolam in 8HUM mice receiving either vehicle (open circles) or dabrafenib (closed triangles). Data shown are mean ± S.D. (B) Immunoblotting of liver microsomes from 8HUM mice, untreated or treated as above, against mouse and human P450 isozymes. Dab, Dabrafenib; MDZ, midazolam; Unt, untreated; Veh, vehicle. One group of dabrafenib-treated mice (Dab) were sacrificed on day 3 without exposure to midazolam to determine the effects of dabrafenib on P450 expression at the start of the PK profiling. […] Std, standard, recombinant human P450 protein or phenobarbital-treated liver microsomes (Cyp2b10); HLM, human liver microsomes.

[11] = test system: 8HUM liver microsomes; assay: Dextromethorphan O-demethylation in liver microsomes of dabrafenib-treated 8HUM mice; type: in vitro ADME, mouse
Experimental: After 5 minutes, the reaction was stopped by combining 100 μl of the reaction mixture with 120 μl of 0.2 M hydrochloric acid containing dextrorphan-d3 (92 ng/ml) as an internal standard. […] The concentrations of […] were measured by liquid chromatography–tandem mass spectrometry (LC-MS/MS). […] The multiple reaction monitoring parameters for dextrorphan and dextrorphan-d3 were 258.16 and 261.24 (precursor ions) and 157.04 (one product ion for both compounds), respectively.
as §2

[12] = test system: CYP3A4; assay: Hepatic CYP3A4 expression in 8HUM mice after dabrafenib (immunoblot); type: in vivo, mouse; details: dabrafenib 10 mg/kg PO
Experimental: Female 8HUM mice received either two daily oral doses of dabrafenib (n = 3; 15 weeks; 10 mg/kg) or vehicle (n = 3; 16 weeks; 0.5% hydroxypropylmethylcellulose, 0.2% Tween 80). On day 3 both groups were administered midazolam (3 mg/kg) by oral gavage. Whole blood collection and sample preparation were performed as described above, and analytical details are described in Supplemental Data. A third group of female 8HUM mice (n = 3; 17–22 weeks) received two daily doses of dabrafenib (10 mg/kg) by oral gavage and were culled for tissue collection on day 3 to allow determination of the effects of dabrafenib on P450 expression at the start of the pharmacokinetic (PK) study.
as §3
Fig. 8. Effect of dabrafenib on midazolam pharmacokinetics in 8HUM mice. Adult female 8HUM mice (n = 3) were treated with vehicle or dabrafenib (10 mg/kg) PO daily for 2 days, and on day 3 were administered midazolam (3 mg/kg) PO and PK profiling carried out as described in Materials and Methods. (A) Pharmacokinetic profiling for midazolam in 8HUM mice receiving either vehicle (open circles) or dabrafenib (closed triangles). Data shown are mean ± S.D. (B) Immunoblotting of liver microsomes from 8HUM mice, untreated or treated as above, against mouse and human P450 isozymes. Dab, Dabrafenib; MDZ, midazolam; Unt, untreated; Veh, vehicle. […]

[13] = target: T2, CYP1A2; assay: 7-Methoxyresorufin O-demethylation in liver microsomes of treated 8HUM mice; details: 8HUM liver microsomes, dabrafenib-treated
Experimental: A mixture of either 7-methoxyresorufin or 7-ethoxyresorufin (1 μM) and 8HUM liver microsomes or HLM (∼0.38 mg protein/ml) in 100 mM potassium phosphate buffer (pH 7.4) supplemented with MgCl2 (3.3 mM) was incubated at 37°C for 5 minutes before the addition of NADPH (final concentration 1.2 mM). […] Slopes of the linear part of the kinetic curves were calculated using Ascent Software Version 2.4.1 (Labsystems). For each reaction two controls, with and without reaction product resorufin (40 pmol) were run. Fluorescence was measured from both control wells and the difference in fluorescence intensity between wells with and without resorufin was used for the conversion of the relative fluorescence units to the picomoles of the reaction product.

[14] = test system: Cytochrome c reductase; assay: Cytochrome c reductase activity in liver microsomes of dabrafenib-treated 8HUM mice; type: in vitro ADME, mouse; details: 8HUM liver microsomes
Experimental: A mixture of cytochrome c from bovine heart (40 μM) and mouse liver microsomes (∼7.6 μg/ml) in 0.3 M potassium phosphate buffer (pH 7.7) was incubated at 37°C for at least 2 minutes before the reaction was started by addition of NADPH (0.1 mM final concentration). The absorbance at 550 nm was recorded and the reaction rate calculated from the linear region of the absorbance time course. The extinction coefficient of 0.0211 μM^−1cm^−1 was used ([van Gelder and Slater, 1962]) to calculate concentration of the reduced cytochrome c.
as §2

[15] = target: T1, CYP2C9; parameters: pooled rifampicin-treated male and female 8HUM mice (8HUM) or pooled human liver microsomes (HLM); host or cells: liver microsomes: pooled human liver; liver of 8HUM mice carrying human CYP2C9 driven by the albumin promoter; details: man; ref Thijssen et al., 2001; cited from earlier work
[16] = parameters: method as in Thijssen et al., 2001; unit not given beside the values; details: man; ref Thijssen et al., 2001; cited from earlier work
[17] = Microsomal stability of S-acenocoumarol; details: 1 μM, 2 mg protein/ml
Experimental: The reaction mixture aliquots were taken at specified time points and mixed with an equal volume of acetonitrile containing warfarin (50 ng/ml) as an internal standard. […] The concentrations of S-acenocoumarol were measured by LC-MS/MS. Chromatographic separation was performed on a Kinetex C18 100 Å column (2.6 μm; 5.0 × 2.1 mm) (Phenomenex) using an injection volume of 10 μl and a run time of 7 minutes. The detector used was a Micromass Quattro Micro mass spectrometer (Waters Corporation) run in electrospray positive ion mode.

[18] = Pharmacokinetics of S-acenocoumarol in 8HUM and CypC4KO mice: effect of sulfaphenazole; type: in vivo, mouse; details: S-acenocoumarol 1 mg/kg oral
Experimental: Mice were administered two daily doses of SJW before receiving a single oral dose of S-acenocoumarol (1 mg/kg). S-acenocoumarol was dissolved in dimethyl sulfoxide (1 mg/ml) and diluted 10-fold in 100 mM potassium phosphate buffer (pH8) or in a solution of sulfaphenazole (9.78 mg/ml) in the same buffer. Compounds were administered to mice at a volume of 10 ml/kg. Blood collection and sample preparation was performed as described above and analytical details are provided in Supplemental Data.
Fig. 6. […] (A) In vitro microsomal stability assay. […] Values show are mean ± S.D.

[19] = Rifampicin 10 mg/kg i.p. daily for 3 days
[20] = Rifampicin + ketoconazole 20 mg/kg PO 30 minutes before
[21] = Vehicle (corn oil) pretreatment

Compound: CC(=O)N1CCN(c2ccc(OCC3COC(Cn4ccnc4)(c4ccc(Cl)cc4Cl)O3)cc2)CC1 (stereo not drawn) [Ketoconazole, ketoconazole]
Tolbutamide (OH-Tolbutamide) activity, percent of activity measured in the absence of inhibitor ([1]; 8HUM microsomes […]): 92 ± 11% | Tolbutamide (OH-Tolbutamide) activity, percent of activity measured in the absence of inhibitor ([1]; HLM […]): 154 ± 66% | Effect of prior ketoconazole on dabrafenib exposure (Cmax and AUC) ([2]; rifampicin-treated female 8HUM mice, ketoconazole 20 mg/kg PO 30 min before dabrafenib): approximately doubling both the Cmax and AUC | Caffeine (Paraxanthine) activity, percent of activity measured in the absence of inhibitor ([3]; 8HUM microsomes […]): 85 ± 34% | Caffeine (Paraxanthine) activity, percent of activity measured in the absence of inhibitor ([3]; HLM […]): 135 ± 45% | Increase of midazolam AUC [4]: ~5 fold

CYP2D6 fm (fraction metabolized) [5]: 0.88 | Km at 40 min ([6]; pH 7.4): 25 ± 7 µM
Compound: N=C(N)N1CCc2ccccc2C1 [Debrisoquine, debrisoquine]
Vmax [6]: 25 ± 2 pmol/min per milligram protein

Compound: CNCCCN1c2ccccc2CCc2ccccc21 [desipramine]
CYP2D6 fm [7]: 0.88

Induction of murine Cyp2b10 [10]: induced weakly | Cmax [2, 19]: 1740 ± 733 ng/mL | half-life [2, 19]: 1.4 ± 0.3 h | AUC [2, 19]: 6150 ± 2930 ng·h/mL | Cmax [2, 20]: 3650 ± 1220 ng/mL | half-life [2, 20]: 1.8 ± 0.1 h | AUC [2, 20]: 12900 ± 2710 ng·h/mL | Cmax [2, 21]: 3740 ± 613 ng/mL | half-life [2, 21]: 2.6 ± 0.4 h | AUC [2, 21]: 21900 ± 1690 ng·h/mL | Methoxyresorufin O-demethylation ([13]; 24 h after final dose): 52 ± 4 | Methoxyresorufin O-demethylation ([13]; 48 h after final dose): 36 ± 1 | Cytochrome c reductase ([14]; 24 h after final dose): 301 ± 19 | Cytochrome c reductase ([14]; 48 h after final dose): 244 ± 19
Compound: CC(C)(C)c1nc(-c2cccc(NS(=O)(=O)c3c(F)cccc3F)c2F)c(-c2ccnc(N)n2)s1 [dabrafenib]
AUC0-t ([8]; day 1): 9359 ng·h/mL | half-life ([8]; day 1): 4.2 h | AUC0-t ([8]; day 18): 6545 ng·h/mL | half-life ([8]; day 18): 2.1 h | Dibenzylfluorescein O-debenzylation ([9]; 24 h after final dose): 440 ± 31 | Dibenzylfluorescein O-debenzylation ([9]; 48 h after final dose): 151 ± 5 | Increase of 7-benylfluorescein O-debenzylation ([9]; 24 hours after the second dabrafenib dose, vs vehicle): approximately 5.5 fold | Elevation of 7-benylfluorescein O-debenzylation ([9]; 24 hours later (48 h after final dabrafenib dose), vs control): about twice control values | Dextromethorphan O-demethylation ([11]; 24 h after final dose): 726 ± 24 | Dextromethorphan O-demethylation ([11]; 48 h after final dose): 614 ± 28 | CYP3A4 induction [12]: potent PXR activator and CYP3A4 inducer; also recorded: is a CYP3A4 inducer; also recorded: induction of CYP3A4

Compound: CC(=O)C[C@@H](c1ccc([N+](=O)[O-])cc1)c1c(O)c2ccccc2oc1=O [S-acenocoumarol]
fraction metabolized by CYP2C9 [15]: 0.94 | AUCR in CYP2C9 extensive versus poor metabolizers [16]: 16.3 | Metabolism in liver microsomes ([17]; liver microsomes from CYP2C9 humanized mice): rapidly metabolized | Metabolism in liver microsomes ([17]; microsomes from wild-type, Cyp2cKO, Cyp2c/2d/3a KO, or hepatic P450 reductase-null mice): practically indistinguishable from that in the no cofactor control | AUC ([18]; SJW-pretreated 8HUM mice, coadministered sulfaphenazole): 2008 ± 159 ng·h/mL | AUC ([18]; SJW-pretreated 8HUM mice, vehicle-treated): 230 ± 30 ng·h/mL | AUC ([18]; SJW-pretreated CypC4KO mice): 2520 ± 214 ng·h/mL

Reference: PMC6505380, “An Extensively Humanized Mouse Model to Predict Pathways of Drug Disposition and Drug/Drug Interactions, and to Facilitate Design of Clinical Trials” (Drug Metabolism and Disposition, 2019)
